As usually defined, the IC50 is the point on the concentration scale where inhibition reaches its midpoint. Higher therefore signals a need for much substance.

We go through 1 compound from ChEMBL document CHEMBL5120870, “Calysepins I-VII, Hexasaccharide Resin Glycosides from Calystegia sepium and Their Cytotoxic Evaluation” (J Nat Prod, 2022).

The subject of this experiment is A549. In words: Cytotoxicity against human A549 cells incubated for 24 hrs by CCK8 assay. The format is functional, cell-based. The conditions noted are these: A549, 24 h. In general terms: Formazan colour is commonly taken as a measure of viable cells.

Structures are written as SMILES.

`CCCCC[C@@H]1CCCCCCCCCC(=O)O[C@H]2[C@H](OC[C@H]3O[C@@H](O[C@H]4[C@H](O)[C@@H](CO)O[C@@H](O[C@H]5[C@H](O1)O[C@H](C)[C@@H](O)[C@@H]5O)[C@@H]4O[C@@H]1O[C@@H](C)[C@H](OC(=O)[C@@H](C)CC)[C@@H](O[C@@H]4O[C@H](CO)[C@@H](OC(=O)[C@@H](C)CC)[C@H](O)[C@H]4O)[C@H]1OC(=O)[C@@H](C)CC)[C@H](O)[C@@H](O)[C@@H]3OC(=O)[C@@H](C)[C@H](C)O)O[C@H](CO)[C@@H](OC(=O)[C@@H](C)CC)[C@@H]2O` yielded an IC50 of 5.2 µM.
